Experiment [1] deals with SK-mel-2 (human malignant melanoma cells). As to the kind of experiment: Tumor cell proliferation inhibition (CCK8). The format is cell-based. The conditions noted are these: IC50 of free drug / IC50 of polypeptide conjugate.
In experiment [2] the test system is ASPC-1 (human pancreatic cancer cells). As to the kind of experiment: Tumor cell proliferation inhibition (CCK8). The class given is cell-based. The conditions noted are these: IC50 of free drug / IC50 of polypeptide conjugate.
Experiment [3] concerns M14 (human malignant melanoma cells). As to the kind of experiment: Tumor cell proliferation inhibition (CCK8). The class given is cell-based. The conditions noted are these: IC50 of free drug / IC50 of polypeptide conjugate.
The subject of experiment [4] is U87-MG (human brain glioblastoma cells). As to the kind of experiment: Tumor cell proliferation inhibition (CCK8). The class given is cell-based. Conditions: IC50 of free drug / IC50 of polypeptide conjugate.
Experiment [5] deals with SiHa (human cervical cancer cells). As to the kind of experiment: Tumor cell proliferation inhibition (CCK8). The format is cell-based. The conditions noted are these: IC50 of free drug / IC50 of polypeptide conjugate.
In experiment [6] the test system is LoVo (human colon cancer cells). As to the kind of experiment: Tumor cell proliferation inhibition (CCK8). The format is cell-based. The conditions noted are these: IC50 of free drug / IC50 of polypeptide conjugate.
In experiment [7] the test system is human gastric cancer cell MKN45 xenograft tumors. As to the kind of experiment: In vivo tumor-inhibitory activity of PTX-AI, MKN45 xenograft. Further details: species or system BALB/c nude mice. The conditions noted are these: 21 days; for Final Tumor Volume: in mm³ (unit assumed). How it is done:
Non-small cell lung cancer A549 cells and human gastric cancer MKN-45 cells were preserved in F12-K medium containing 10% fetal bovine serum and 1% penicillin + streptomycin, and incubated at 37°C with 5% CO2 and 95% humidity. The aforementioned cells were cultured in T175 flasks with an experimental cell density of 80%. The aforementioned cell lines were mycoplasma-negative. Both A549 cells and MKN-45 cells were provided by Nanjing Anji Biotechnology Co., Ltd.
Human gastric cancer cells MKN-45 in the vigorous growth stage were taken and inoculated subcutaneously into the right axilla of BALB/c nude mice under sterile conditions, with a cell inoculation amount of 5×10^6. The diameter of transplanted tumors in nude mice was measured with a vernier caliper. When the tumors grew to approximately 50mm^3, […] tumor-bearing nude mice with good growth status and relatively uniform tumor size were selected, and divided into 6 groups, including 10 mice in the model group and 8 mice in each of the remaining groups. The anti-tumor effect of the test substance was dynamically observed by measuring the tumor diameter. The tumor diameter was measured every other day, and the body weight of the nude mice was weighed simultaneously during the measurement of the tumor diameter. After 21 days of administration, the nude mice were euthanized, the tumor inhibition rate (%) was calculated, and the tumor masses were peeled off and weighed. Table 3 Detection of In Vivo Tumor-Inhibitory Activity of PTX-AI

Experiment [8] concerns T24 (human bladder transitional cell carcinoma cells). As to the kind of experiment: Tumor cell proliferation inhibition (CCK8). The class given is cell-based. Conditions: IC50 of free drug / IC50 of polypeptide conjugate.
Experiment [9] deals with Saos-2 (human osteosarcoma cells). As to the kind of experiment: Tumor cell proliferation inhibition (CCK8). The format is cell-based. The conditions noted are these: IC50 of free drug / IC50 of polypeptide conjugate.
Experiment [10] relates to A2780 (human ovarian cancer cells). As to the kind of experiment: Tumor cell proliferation inhibition (CCK8). The class given is cell-based. Conditions: IC50 of free drug / IC50 of polypeptide conjugate.
Where [11] appears, read: 2.64 µmol/Kg, once every other day.
[12] abbreviates: 4.07 µmol/Kg, once every other day.
Setting [13] is: 5.28 µmol/Kg, continuous administration for 4 days a week.
The mark [14] stands for this setting: 7.92 µmol/Kg, once every other day.

Molecules are shown by their SMILES. Peptide text beside a SMILES is read from it. * marks the point of attachment. Paclitaxel(2'-O-succinyl) = CC(=O)O[C@H]1C(=O)[C@@]2(C)[C@H]([C@H](OC(=O)c3ccccc3)[C@]3(O)C[C@H](OC(=O)[C@H](OC(=O)CCC(=O)*)[C@@H](NC(=O)c4ccccc4)c4ccccc4)C(C)=C1C3(C)C)[C@]1(OC(C)=O)CO[C@@H]1C[C@@H]2O

As for `CC(=O)O[C@@]12CO[C@@H]1C[C@H](O)[C@@]1(C)C(=O)[C@H](O)C3=C(C)[C@@H](OC(=O)[C@H](OC(=O)CCC(=O)N[C@@H](CCCNC(=N)N)C(=O)N[C@@H](CO)C(=O)N4CCC[C@H]4C(=O)N[C@@H](Cc4ccc(O)cc4)C(=O)N[C@@H](C)C(=O)N[C@@H](CC(N)=O)C(=O)N[C@@H](CO)C(=O)O)[C@@H](NC(=O)OC(C)(C)C)c4ccccc4)C[C@@](O)([C@@H](OC(=O)c4ccccc4)[C@H]21)C3(C)C` [DOC-AI], the “Efficiency Ratios” value was determined as 1.00 in [1]; 2.31 in experiment [2]; 1.21 in experiment [3]; 2.05 in experiment [4]; 3.90 in experiment [5]; 1.18 in experiment [6].
On to `CC(=O)O[C@H]1C(=O)[C@@]2(C)[C@H]([C@H](OC(=O)c3ccccc3)[C@]3(O)C[C@H](OC(=O)[C@H](OC(=O)CCC(=O)N[C@@H](CCCNC(=N)N)C(=O)N[C@@H](CO)C(=O)N4CCC[C@H]4C(=O)N[C@@H](Cc4ccc(O)cc4)C(=O)N[C@@H](C)C(=O)N[C@@H](CC(N)=O)C(=O)N[C@@H](CO)C(=O)O)[C@@H](NC(=O)c4ccccc4)c4ccccc4)C(C)=C1C3(C)C)[C@]1(OC(C)=O)CO[C@@H]1C[C@@H]2O` [PTX-AI] ({Paclitaxel(2'-O-succinyl)}-RSPYANS-OH), for which the “Tumor Inhibition Rate” value in [7] (setting [11]) was 36.3%; in [7] (setting [12]), 42.9%; in experiment [7] (setting [13]) it was 53.3%; in experiment [7] (setting [14]) it was 60.8%. In addition, the “Tumor Weight” value in experiment [7] (setting [11]) was found to be 0.961 ± 0.119 g; in experiment [7] (setting [12]) it was 0.861 ± 0.126 g; in experiment [7] (setting [13]), 0.705 ± 0.066 g; in experiment [7] (setting [14]) it was 0.591 ± 0.099 g. Moreover, the “Final Tumor Volume” value in experiment [7] (setting [11]) came out at 934.0±125.0; in experiment [7] (setting [12]), 852.1±137.3; in experiment [7] (setting [13]), 700.6±59.6; in experiment [7] (setting [14]) it was 579.8±91.9. Also, the “Efficiency Ratios” value in [8] came out at 1.78; in experiment [9], 1.47; in experiment [10], 1.11.
